Test results reported in patent publication US20100267928A1, “ACTIVATABLE DIAGNOSTIC AND THERAPEUTIC COMPOUND” (priority 2007, published 2010).
Primed or numbered codes have the meaning given here. Where no end group is shown, it is not given here. The star is where a group is joined. DOTA = O=C(O)CN1CCN(CC(=O)O)CCN(CC(=O)*)CCN(CC(=O)O)CC1; FITC′ = fluorescent dye, fluorescein isothiocyanate

How the values were obtained:
MMP-2 = biological target: T1, MMP-2 (Homo sapiens, UniProt P08253); assay: Cleavage test with MMP-2, cleavage products examined by HPLC; assay type: biochemical
T1 construct: purchased Calbiochem
T1 sequence (P08253 110-660): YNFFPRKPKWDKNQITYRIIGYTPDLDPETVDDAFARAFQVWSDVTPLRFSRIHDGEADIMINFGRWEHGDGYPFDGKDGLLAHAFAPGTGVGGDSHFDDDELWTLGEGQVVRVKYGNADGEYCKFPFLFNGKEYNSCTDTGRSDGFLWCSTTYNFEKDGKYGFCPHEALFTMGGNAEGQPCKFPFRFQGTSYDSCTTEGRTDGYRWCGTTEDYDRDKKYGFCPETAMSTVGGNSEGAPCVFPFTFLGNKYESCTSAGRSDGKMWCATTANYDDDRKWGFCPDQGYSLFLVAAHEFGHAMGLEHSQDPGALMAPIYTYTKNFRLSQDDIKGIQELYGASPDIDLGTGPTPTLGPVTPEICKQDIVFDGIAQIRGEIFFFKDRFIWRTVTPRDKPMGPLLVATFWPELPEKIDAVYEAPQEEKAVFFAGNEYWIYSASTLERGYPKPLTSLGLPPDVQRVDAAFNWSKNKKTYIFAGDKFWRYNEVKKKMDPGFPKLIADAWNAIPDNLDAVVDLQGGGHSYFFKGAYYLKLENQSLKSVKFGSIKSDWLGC
Protocol: The incubation in HEPES buffer with active MMP-2 was made for 2 hours.
[…]. For this 1% APMA stock solution (100 mM in DMSO) was added to the solution containing the MMP-2 proenzyme and the compounds (final APMA concentration: 1 mM, with 1% DMSO).
In the following also an incubation of 2 hours was performed. In addition the tests were made with the MMP-2 inhibitor I (Calbiochem). All six compounds were, as a control, also incubated into HEPES buffer without MMP-2 for two hours.

[1] = system: LN18 and U373 glioma cells; assay: Confocal laser scanning microscopy (CLSM) and FACS, staining of cell nuclei; assay type: cell-based, human; settings: 130 μM, APMA-containing medium, MMP-2 inactive/inhibited
Protocol: (§1) The FACS analysis was performed on a Becton-Dickinson FACSCalibur. [[…] of the cell suspension (1×10^6 cells+[…] FACS buffer (DPBS buffer with 1% paraformaldehyde)]. Approximately 25.000 to 35.000 cells were measured per sample [fluorescence excitation: argon-ion laser (480 nm), fluorescence detection: 540 to 565 nm band-path filter]. The tests were repeated two times.

[2] = system: LN18 and U373 glioma cells; settings: 130 μM; APMA-containing medium without inhibitor
Protocol: Human malignant glioma cells (U373 and LN18) were seated into 25 cm^2 culture flasks which contained 3 ml RPMI medium. This was left as it is for one day so that enough matrix metalloprotenases (MMP-2) could accumulate.
In a second test the same compounds were again dissolved in the media of 12 flasks (130 μM), however now with MMP-2 inhibitor I (Calbiochem).
As a control four small flasks were used wherein both cell lines were incubated in a one day old medium with and also without APMA.
For the confocal laser scanning microscopy an inverted LSM510 laser scanning microscope (Karl Zeiss, Jena, Deutschland) (Objectives: LD Achroplan 40×0.6, Plan Neofluar 20×0.50, 40×0.75) was used [fluorescence excitation at 488 nm (argon-ion laser) and […] (helium-neon laser)]. Superimposed images of FITC- and alexa-stained cells were produced. All measurements were performed on living, non-fixed cells for three times.

LN18 glioma cells = assay: FACS analysis of fluorescence-stained cells; assay type: cell-based, human; settings: depending on the concentration; FIG. 5
Protocol: as §1

[3] = system: U373 and LN18 glioma cells; assay: Magnetic resonance relaxometry on glioma cell centrifugates; assay type: cell-based, human
Protocol: Human U373 and LN18 glioma cells were grown in 25 cm^2 culture flasks (70% confluence). Accutase™ (PAA laboratories, Pasching, Austria) was added to strip off the cells from the bottom of the culture flasks.
In a first try the cells were collected and subsequently distributed on 16 Eppendorf-vials (6×10^6 cells per vial). The cells in the first four vials were used as a control (only RPMI medium with and also without APMA, two cell lines). […] In the following it was washed for three times with PBS and centrifuged with 800 rpm (rounds per minute) for 5 minutes.
In another test adherent U373 and LN18 glioma cells were incubated with the compounds 2A, 4A and […], and were stripped off in the following and collected in Eppendorf vials for the MRT. The MRT analysis of the Eppendorf vials with the cell centrifugates were performed in a 3 Tesla full body MRT apparatus (Trio, Siemens Magnetom Sonata, circular polarised knee coil).
The following spin echo sequence was used to obtain sagittal T1-weighted MRT images.
[…] TE (echo time): 7.4 ms, flip angle 90°, averages: 1, concatenations: 2, measurements: 2, number of slices: 19, distance factor: 30%, slice thickness: 3 mm, field of view read: 180 mm, field of view phase: 100%, base resolution: 256, phase resolution: 100%, voxel size: 0.7×0.7×3.0 mm, scan time: 1:48 min.
By means of multiple spin echo measurements (TR: 20-8000 ms, 50 different TR values) different signal intensities were measured through which the T1 relaxation time could be determined.
TR: 20-8000 ms (50 different TR values), TE: 6.4 ms, flip angle 90°, averages: 1, measurements; 1, number of slices: 1, slice thickness: 1 mm, field of view read: 120 mm, field of view phase: 87.5, base resolution 128, phase resolution; 100% voxel size: 0.9×0.9×1 mm.
For the analysis and calculations a Matlab programme (Math Works, Natick, Mass., USA) was used. The T1 values were determined via a two-parameter fit. All signal curves were examined and rated as being mono-exponential. All tests were performed three times.

[4] = system: intra-cerebral LN18 brain tumors; assay: In vivo magnetic resonance tomography of nude mice with implanted glioma
Protocol: Female nude mice CD1(Nu/Nu) were obtained from Charles River (Sulzfeld, Germany) (weight: 25 g; age: 7 weeks). Human LN18 glioma cells were grown and implanted into the brain as described by Friese et al. (2003), MICA/NKG2D-mediated Immunogene Therapy of Experimental Gliomas, Cancer Res. 63(24): 8996-9006. The tests were performed 3 weeks after the implantation.
3.6 mg of the compound 4A were dissolved in 1 ml isotonic saline solution and intraperitoneally injected into 2 mice. Further, 3.6 mg of compound 4A were dissolved in 1 ml isotonic saline solution together with 0.5 mg MMP-2 inhibitor I, and in intraperitoneally injected into 2 mice. A mouse was used as control which were injected with 1 ml pure saline solution. Narcosis was performed with ketamine (100 mg/kg) and xylazine (10 mg/kg) intraperitoneally.
MRT was performed with a 3 Tesla full body apparatus (Trio. Siemens).
The mice were placed face down in a wrist array coil.
The MRT protocol consisted of the following sequences:
Tse 3D sequence: slice thickness 0.3125 mm, field of view read 63 mm, field of view phase 100.0%, base resolution 256, phase resolution 100%, slice resolution 100%, voxel seize 0.2×0.2×0.3 mm, slab group 1, slabs 1, slices per slab 16, TR 300 ms, TE 15 ms, flip angle 70, distance factor 50, scan time 12:02 min.
T1 weighted transverse images: slice thickness 2 mm, field of view read 31 mm, field of view phase 82.3%, voxel seize 0.2×0.2×2 mm, TR 600 ms, TE 18 ms, flip angle 180, number of slices 12, distance factor 0, scan time 11:35 min.

K-(GdDOTA)-G-PLGLA-GG-PKKKRKVRRRR-K(FITC)-GG-K(GdDOTA) (K(DOTA)GPLGLAGGPKKKRKVRRRRK(FITC′)GGK(DOTA)-NH2; also: DOTA groups complexed with Gd (GdDOTA)) [V4A]
cleavage of the compound by MMP-2 (HPLC) (MMP-2; already active MMP-2 or proform of MMP-2 activated by APMA, 2 hours in HEPES buffer): cleaved | cleavage of the compound by MMP-2 in presence of the inhibitor (HPLC) (MMP-2; with MMP-2 inhibitor I): prevented | staining of the cell nuclei, MMP-2 inactive [1]: few stained cell nuclei | apoptosis (binding of Alexa annexin to phosphatidyl serine; morphologic alterations), MMP-2 active [2]: apoptotic | fluorescence after cleavage by MMP-2 in comparison to the components 2 and 2A (LN18 glioma cells): stronger fluorescence | shortening of the T1 time in comparison to the native control, inhibitor-containing medium ([3]; 26 and 130 μM, with MMP-2 inhibitor): minor shortening of the T1 time | signal intensity at TR: 400 ms, active MMP-2 versus inactive MMP-2 ([3]; LN18 glioma cell centrifugates, 26 and 130 μm, washed and centrifuged three times): considerably higher signal intensity | shortening of the T1 time in comparison to component 2A, inhibitor-free medium ([3]; depending on the concentration): stronger shortening of the T1 time | shortening of the T1 time, inhibitor-free medium ([3]; without MMP-2 inhibitor): more distinct shortening of the T1 time | intensity of the signal in the tumor in comparison to the native image ([4]; 30 minutes after intraperitoneal administration, FIG. 8): considerably decreases | signal intensity in the brain tumors in MR tomography ([4]; intraperitoneal administration, nude mice with intra-cerebral LN18 brain tumors): distinct increase of the signal intensity | signal intensity in the brain tumors, administered in the presence of an MMP-2 inhibitor ([4]; intraperitoneal, with MMP-2 inhibitor, remained only for a short time): very minor increase of the signal intensity | signal intensity in the brain tumors one day after the administration ([4]; intraperitoneal, one day after administration): attenuated form
